Test results reported in patent US20260376293A1, “METHODS FOR STUDYING GPR158 PHARMACOLOGY AND IDENTIFICATION OF ITS LIGANDS” (UNIVERSITY OF FLORIDA RESEARCH FOUNDATION, INCORPORATED, priority 2022, published 2026).

Target: T1, GPR158 R173A mutant (Homo sapiens, UniProt Q5T848, R173A)
T1 sequence (Q5T848 24-1215 R173A): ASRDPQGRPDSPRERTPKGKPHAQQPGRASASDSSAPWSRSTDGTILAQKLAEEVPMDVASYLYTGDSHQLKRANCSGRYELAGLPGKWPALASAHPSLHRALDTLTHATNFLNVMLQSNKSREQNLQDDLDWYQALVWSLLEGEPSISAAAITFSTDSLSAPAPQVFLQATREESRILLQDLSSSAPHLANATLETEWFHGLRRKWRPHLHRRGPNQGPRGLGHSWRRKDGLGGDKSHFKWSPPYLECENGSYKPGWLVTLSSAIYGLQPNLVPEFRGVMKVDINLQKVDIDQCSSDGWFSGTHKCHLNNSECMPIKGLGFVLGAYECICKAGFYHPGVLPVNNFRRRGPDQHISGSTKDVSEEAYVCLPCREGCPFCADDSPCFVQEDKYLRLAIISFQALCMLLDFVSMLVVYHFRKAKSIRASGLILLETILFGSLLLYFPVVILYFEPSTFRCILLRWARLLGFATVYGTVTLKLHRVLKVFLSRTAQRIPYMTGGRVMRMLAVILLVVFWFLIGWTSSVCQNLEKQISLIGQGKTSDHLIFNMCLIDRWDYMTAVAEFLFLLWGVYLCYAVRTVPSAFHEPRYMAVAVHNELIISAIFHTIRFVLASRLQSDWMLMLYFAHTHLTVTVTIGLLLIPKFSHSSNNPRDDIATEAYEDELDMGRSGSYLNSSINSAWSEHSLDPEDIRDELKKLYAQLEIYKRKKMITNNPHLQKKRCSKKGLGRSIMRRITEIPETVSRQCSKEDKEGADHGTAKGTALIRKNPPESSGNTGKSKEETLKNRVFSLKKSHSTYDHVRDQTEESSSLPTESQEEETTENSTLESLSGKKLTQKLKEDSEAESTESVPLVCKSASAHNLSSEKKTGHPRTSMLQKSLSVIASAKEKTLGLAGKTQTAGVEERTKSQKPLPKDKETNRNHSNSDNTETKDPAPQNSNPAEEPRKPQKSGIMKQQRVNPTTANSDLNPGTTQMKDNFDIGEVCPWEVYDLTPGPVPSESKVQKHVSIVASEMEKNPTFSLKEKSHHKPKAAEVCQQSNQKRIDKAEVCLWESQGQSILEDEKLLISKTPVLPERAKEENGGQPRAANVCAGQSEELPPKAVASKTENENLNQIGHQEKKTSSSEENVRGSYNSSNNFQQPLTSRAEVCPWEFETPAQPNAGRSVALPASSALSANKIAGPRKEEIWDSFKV
Experiment: Radioligand binding assay on GPR158 mutant R173A
From the text: FIGS. 11A-11G. Probing Cache domain of GPR158 as a ligand binding site A) Computational docking of glycine into putative ligand binding pocket on GPR158 Cache domain. Glycine and directly interacting residues are shown as sticks. Hydrogen bonds and van der Waals interactions are shown as dotted lines. B) Diagram showing interactions in the docked model of glycine against GPR158 Cache domain. Hydrogen bonds are shown as dashed lines, van der Waals interactions are shown as intersecting semicircles, and the secondary structural context of Ser266 and Tyr269 is shown as an arc. Dagger indicates a residue implicated in glycine binding in 11A. C) Radioligand binding assay of ^3H-glycine in cells expressing GPR158 mutants. Data shown mean±s.e.m. of 3 independent experiments, *p<0.05, ns=p>0.05 one-way ANOVA. D) Functional evaluation of GPR158 mutants in GAP BRET assay. Error bars are mean±s.e.m. of 3 independent experiments in triplicate. *p<0.05, **p<0.01, ***p<0.001, ****p<0.0001, ns=p>0.05, two-way ANOVA Columns with no fill (Ctrl), columns with angled-line fill (Glycine) E) Quantification of glycine inhibitory effect on kGAP normalized to the effect seen with WT receptor. […]
Whole cell binding was performed using cDNA of GPR158-venus or each GPR158-venus mutant or empty pcDNA3.1+ for ctrl cells. […] Finally radioactivity was measured using the liquid scintillation analyzer Tri-Carb 4910 TR.

[^3H]-glycine binding: near complete loss
Structure (SMILES): NCC(=O)O [^3H-glycine, [^3H]-glycine]
